# Assay results as given in patent publication US9833497B2, “Human originated EGF domain proteins and use of the same” (CHENGDU SOURCEBIO LIMITED-LIABILITY COMPANY, priority 2013, dated 2017).
# How the values were obtained:
# Format in all cases: cell-based
# E. coli BL21 = assay: MIC against Gram-negative bacteria: E. coli BL21; conditions: 5×10^5 CFU/mL
# Outline: (§1)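 Inocula prepared by growing LB cultures at 37° C to 0.5 McFarland, centrifuging at 4000×g, and resuspending in fresh medium. Final density 5×10^5 CFU/mL per well with two-fold dilutions of purified EGF domain protein; shaking incubation at 37° C.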
# Pseudomonas aeruginosa = assay: MIC against Gram-negative bacteria: Pseudomonas aeruginosa; conditions: 5×10^5 CFU/mL
# Outline: as §1
# Klebsiella pneumonia = assay: MIC against Gram-negative bacteria: Klebsiella pneumonia; conditions: 5×10^5 CFU/mL
# Outline: as §1
# Proteus vulgaris = assay: MIC against Gram-negative bacteria: Proteus vulgaris; conditions: 5×10^5 CFU/mL
# Outline: as §1
# Aeromonas hydrophila = assay: MIC against Gram-negative bacteria: Aeromonas hydrophila; conditions: 5×10^5 CFU/mL
# Outline: as §1
# Enterobacter cloacae = assay: MIC against Gram-negative bacteria: Enterobacter cloacae; conditions: 5×10^5 CFU/mL
# Outline: as §1
# Citrobacter diversus = assay: MIC against Gram-negative bacteria: Citrobacter diversus; conditions: 5×10^5 CFU/mL
# Outline: as §1
# Serratia marcescens = assay: MIC against Gram-negative bacteria: Serratia marcescens; conditions: 5×10^5 CFU/mL
# Outline: as §1
# Moraxella catarrhalis = assay: MIC against Gram-negative bacteria: Moraxella catarrhalis; conditions: 5×10^5 CFU/mL
# Outline: as §1
# Proteus mirabilis = assay: MIC against Gram-negative bacteria: Proteus mirabilis; conditions: 5×10^5 CFU/mL
# Outline: as §1
# E. coli DH5α = assay: Antibacterial activity: MIC and growth curve against E. coli DH5α in 96-well plate; conditions: minimal inhibitory concentration against E. coli DH5α; 96-well plate, 5×10^5 CFU/mL, 37° C., judged after 8 h
# Outline: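 Log-phase DH5α (OD600 about 0.5, 37° C, 185 rpm in LB) was pelleted, resuspended in fresh LB and seeded at 5×10^5 CFU/mL with recombinant protein at 50, 25 and 12.5 μg/mL (two-fold series), in triplicate. Plates were shaken at 175 rpm, 37° C, and OD600 was read every 30 min. MIC was the lowest concentration with no growth.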
# [1] = E. coli BL21, 10 h cultivation at 37° C.
substance,measurement,setting,value
PRT548 (CPCPLSVPSNNFAEGCVLRGGRTQCLCKPGYAGASCERCAPGFFGNPLVLGSSCQP; listed as Homo sapiens),MIC against E. coli BL21,"E. coli BL21; 96-well plate, 37° C., 10 h",25 µg/mL
same,MIC against P. aeruginosa,"Pseudomonas aeruginosa; 96-well plate, 37° C., 10 h",50 µg/mL
same,MIC against K. pneumonia,"Klebsiella pneumonia; 96-well plate, 37° C., 10 h",25 µg/mL
same,MIC against P. vulgaris,"Proteus vulgaris; 96-well plate, 37° C., 10 h",25 µg/mL
same,MIC against A. hydrophila,"Aeromonas hydrophila; 96-well plate, 37° C., 10 h",25 µg/mL
same,MIC against E. cloacae,"Enterobacter cloacae; 96-well plate, 37° C., 10 h",12.5 µg/mL
same,MIC against C. diversus,"Citrobacter diversus; 96-well plate, 37° C., 10 h",50 µg/mL
same,MIC against S. marcescens,"Serratia marcescens; 96-well plate, 37° C., 10 h",50 µg/mL
same,MIC against M. catarrhalis,"Moraxella catarrhalis; 96-well plate, 37° C., 10 h",25 µg/mL
same,MIC against P. mirabilis,"Proteus mirabilis; 96-well plate, 37° C., 10 h",12.5 µg/mL
same,MIC,E. coli DH5α,12.5 µg/mL
PRT504 (CDCSGNVDPSEAGHCDSVTGECLKCLGNTDGAHCERCADGFYGDAVTAKNCRA; listed as Homo sapiens),MIC against E. coli BL21,"E. coli BL21; 96-well plate, 37° C., 10 h",50 µg/mL
same,MIC against P. aeruginosa,"Pseudomonas aeruginosa; 96-well plate, 37° C., 10 h",12.5 µg/mL
same,MIC against K. pneumonia,"Klebsiella pneumonia; 96-well plate, 37° C., 10 h",50 µg/mL
same,MIC against P. vulgaris,"Proteus vulgaris; 96-well plate, 37° C., 10 h",50 µg/mL
same,MIC against A. hydrophila,"Aeromonas hydrophila; 96-well plate, 37° C., 10 h",25 µg/mL
same,MIC against E. cloacae,"Enterobacter cloacae; 96-well plate, 37° C., 10 h",12.5 µg/mL
same,MIC against C. diversus,"Citrobacter diversus; 96-well plate, 37° C., 10 h",50 µg/mL
same,MIC against S. marcescens,"Serratia marcescens; 96-well plate, 37° C., 10 h",12.5 µg/mL
same,MIC against M. catarrhalis,"Moraxella catarrhalis; 96-well plate, 37° C., 10 h",25 µg/mL
same,MIC against P. mirabilis,"Proteus mirabilis; 96-well plate, 37° C., 10 h",12.5 µg/mL
same,MIC,E. coli DH5α,12.5 µg/mL
PRT1215 (SNDPCVEKPCPGDMQCVSYEASRRPFLCQCPPGKLGECS; listed as Homo sapiens),MIC against E. coli BL21,"E. coli BL21; E. coli BL21, 96-well plate, 37° C., 10 h",50 µg/mL
same,MIC against P. aeruginosa,"Pseudomonas aeruginosa; Pseudomonas aeruginosa, 96-well plate, 37° C., 10 h",12.5 µg/mL
same,MIC against K. pneumonia,"Klebsiella pneumonia; Klebsiella pneumonia, 96-well plate, 37° C., 10 h",25 µg/mL
same,MIC against P. vulgaris,"Proteus vulgaris; Proteus vulgaris, 96-well plate, 37° C., 10 h",12.5 µg/mL
same,MIC against A. hydrophila,"Aeromonas hydrophila; Aeromonas hydrophila, 96-well plate, 37° C., 10 h",12.5 µg/mL
same,MIC against E. cloacae,"Enterobacter cloacae; Enterobacter cloacae, 96-well plate, 37° C., 10 h",50 µg/mL
same,MIC against C. diversus,"Citrobacter diversus; Citrobacter diversus, 96-well plate, 37° C., 10 h",25 µg/mL
same,MIC against S. marcescens,"Serratia marcescens; Serratia marcescens, 96-well plate, 37° C., 10 h",25 µg/mL
same,MIC against M. catarrhalis,"Moraxella catarrhalis; Moraxella catarrhalis, 96-well plate, 37° C., 10 h",50 µg/mL
same,MIC against P. mirabilis,"Proteus mirabilis; Proteus mirabilis, 96-well plate, 37° C., 10 h",25 µg/mL
same,MIC,E. coli DH5α,25 µg/mL
PRT474 (QADPCQPNPCEHGGDCLVHGSTFTCSCLAPFSGNKCQ; listed as Homo sapiens),MIC against E. coli BL21,"E. coli BL21; 96-well plate, 37° C., 10 h",25 µg/mL
same,MIC against P. aeruginosa,"Pseudomonas aeruginosa; 96-well plate, 37° C., 10 h",25 µg/mL
same,MIC against K. pneumonia,"Klebsiella pneumonia; 96-well plate, 37° C., 10 h",25 µg/mL
same,MIC against P. vulgaris,"Proteus vulgaris; 96-well plate, 37° C., 10 h",50 µg/mL
same,MIC against A. hydrophila,"Aeromonas hydrophila; 96-well plate, 37° C., 10 h",50 µg/mL
same,MIC against E. cloacae,"Enterobacter cloacae; 96-well plate, 37° C., 10 h",25 µg/mL
same,MIC against C. diversus,"Citrobacter diversus; 96-well plate, 37° C., 10 h",12.5 µg/mL
same,MIC against S. marcescens,"Serratia marcescens; 96-well plate, 37° C., 10 h",12.5 µg/mL
same,MIC against M. catarrhalis,"Moraxella catarrhalis; 96-well plate, 37° C., 10 h",50 µg/mL
same,MIC against P. mirabilis,"Proteus mirabilis; 96-well plate, 37° C., 10 h",12.5 µg/mL
same,MIC,E. coli DH5α,12.5 µg/mL
PRT219 (DIDECRTSSYLCQYQCVNEPGKFSCMCPQGYQVVRSRTCQ; listed as Homo sapiens),MIC (μg/mL) E. coli BL21,E. coli BL21; [1],25 µg/mL
same,MIC (μg/mL) P. aeruginosa,"Pseudomonas aeruginosa; P. aeruginosa, 10 h cultivation at 37° C.",50 µg/mL
same,MIC (μg/mL) K. pneumonia,"Klebsiella pneumonia; K. pneumonia, 10 h cultivation at 37° C.",12.5 µg/mL
same,MIC (μg/mL) P. vulgaris,"Proteus vulgaris; P. vulgaris, 10 h cultivation at 37° C.",25 µg/mL
same,MIC (μg/mL) A. hydrophila,"Aeromonas hydrophila; A. hydrophila, 10 h cultivation at 37° C.",12.5 µg/mL
same,MIC (μg/mL) E. cloacae,"Enterobacter cloacae; E. cloacae, 10 h cultivation at 37° C.",12.5 µg/mL
same,MIC (μg/mL) C. diversus,"Citrobacter diversus; C. diversus, 10 h cultivation at 37° C.",12.5 µg/mL
same,MIC (μg/mL) S. marcescens,"Serratia marcescens; S. marcescens, 10 h cultivation at 37° C.",12.5 µg/mL
same,MIC (μg/mL) M. catarrhalis,"Moraxella catarrhalis; M. catarrhalis, 10 h cultivation at 37° C.",12.5 µg/mL
same,MIC (μg/mL) P. mirabilis,"Proteus mirabilis; P. mirabilis, 10 h cultivation at 37° C.",12.5 µg/mL
same,MIC,E. coli DH5α,12.5 µg/mL
PRT1473 (SFLNCSLDNGGCTHYCLEEVGWRRCSCAPGYKLGDDLLQCH; listed as Homo sapiens),MIC against E. coli BL21,E. coli BL21; [1],25 µg/mL
same,MIC against P. aeruginosa,"Pseudomonas aeruginosa; Pseudomonas aeruginosa, 10 h cultivation at 37° C.",25 µg/mL
same,MIC against K. pneumonia,"Klebsiella pneumonia; Klebsiella pneumonia, 10 h cultivation at 37° C.",50 µg/mL
same,MIC against P. vulgaris,"Proteus vulgaris; Proteus vulgaris, 10 h cultivation at 37° C.",25 µg/mL
same,MIC against A. hydrophila,"Aeromonas hydrophila; Aeromonas hydrophila, 10 h cultivation at 37° C.",50 µg/mL
same,MIC against E. cloacae,"Enterobacter cloacae; Enterobacter cloacae, 10 h cultivation at 37° C.",12.5 µg/mL
same,MIC against C. diversus,"Citrobacter diversus; Citrobacter diversus, 10 h cultivation at 37° C.",12.5 µg/mL
same,MIC against S. marcescens,"Serratia marcescens; Serratia marcescens, 10 h cultivation at 37° C.",12.5 µg/mL
same,MIC against M. catarrhalis,"Moraxella catarrhalis; Moraxella catarrhalis, 10 h cultivation at 37° C.",25 µg/mL
same,MIC against P. mirabilis,"Proteus mirabilis; Proteus mirabilis, 10 h cultivation at 37° C.",50 µg/mL
same,MIC,E. coli DH5α,12.5 µg/mL
